{"source": "patent US4521430A", "about": "“1,5-Benzothiazepin-4-one, their pharmaceutical compositoins, and methods of use” (Tanabe Seiyaku Co., Ltd., priority 1983, dated 1985)", "key": {"[1]": {"test_system": "vertebral artery blood flow", "assay": "Cerebral vasodilating activity: vertebral artery blood flow in anesthetized dogs, injection into vertebral artery (Experiment 1)", "assay_type": "in vivo", "description": "(§1) For example, when the cerebral vasodilating activity is evaluated by examining vertebral artery blood flow in anesthetized dogs to which a test compound is intraarterially administered, said activity of (+)-cis-2-(4-methoxyphenyl)-3-(2-chloro-4-nitrobenzoyloxy)-5-[2-(dimethylamino)ethyl]-2,3-dihydro-1,5-benzothiazepin-4-(5H)-one fumarate is 4.5 times stronger than that of papaverine. On the other hand, the coronary vasodilating activity of (+)-cis-2-(4-methoxyphenyl)-3-(2-chloro-4-nitrobenzoyloxy)-5-[2-(dimethylamino)ethyl]-2,3-dihydro-1,5-benzothiazepin-4(5H)-one fumarate when examined by the Langendorff method using isolated hearts of guinea pigs is 10 times stronger than that of papaverine.\n(§2) (Cerebral vasodilating activity)\nMale dogs weighing 10 to 20 kg were anesthetized with sodium pentobarbital (30 mg/kg, intravenous injection). The blood flow in vertebral artery was measured continuously by means of an electromagnetic flowmeter under artificial respiration. A test compound dissolved in an aqueous 5% glucose solution was injected into vertebral artery. The cerebral vasodilating activity of the test compound was estimated in terms of \"the potency ratio of said compound to papaverin\" which was calculated from the dose-responsecurves thereof."}, "vertebral blood flow": {"test_system": "vertebral blood flow", "assay": "Cerebral vasodilating activity: total increase in vertebral blood flow in anesthetized dogs, intravenous (Experiment 2)", "assay_type": "in vivo", "settings": "anesthetized male dogs, 0.2 mg/kg intravenously; increase at peak response x half duration time", "description": "as §2\nMale dogs weighing 11 to 16 kg (one group: 3 dogs) were anesthetized with sodium pentobarbital (30 mg/kg, intravenous injection). The vertebral blood flow was measured by means of an electromagnetic flowmeter under artificial respiration. A test compound dissolved in an aqueous 5% glucose solution was injected intravenously at a dose of 0.2 mg/kg. The cerebral vasodilating activity of the test compound was estimated in terms of \"total increase in vertebral blood flow\" which was calculated by multiplying \"increase (Δml/minute) in blood flow at peak response\" by \"half duration time (T 1/2:minute)\"."}, "[2]": {"test_system": "coronary blood flow of the isolated heart", "assay": "Coronary vasodilating activity: Langendorff's method, coronary blood flow of isolated heart (Experiment 3)", "design": "species or system guinea pig", "description": "as §1\nLangendorff's method was used for testing the effect on the coronary blood flow of the isolated heart of guinea pig (about 280 g). The isolated heart was perfused with Locke-Ringer solution containing 2% of defibrinated rabbit blood, which had been saturated with a mixed gas of 95% O2 and 5% CO2 (30° C.). Perfusion pressure was kept at 40 cm H2 O. A solution of a test compound in an aqueous 5% glucose solution was injected into the perfusing solution at a volume of 0.1 ml per heart. The outflow of the perfusate was measured by means of a drop counter.\nThe coronary vasodilating activity of the test compound was expressed as \"±\" if the increase in coronary blood flow is less than 0.5 ml/minute at a dose of 100 μg/heart; \"+\" if the increase is not less than 0.5 ml/minute at a dose of 100 μg/heart; \"++\" if the increase is not less than 0.5 ml/minute at a dose of 30 μg/heart; and \"+++\" if the increase is not less than 0.5 ml/minute at a dose of not more than 10 μg/heart."}, "platelet aggregation": {"test_system": "platelet aggregation", "assay": "Platelet aggregation-inhibiting activity, collagen, platelet-rich plasma (Experiment 4)", "assay_type": "cell-based, Sprague-Dawley rats", "design": "key: -: the test compound showed less than 10% inhibition of platelet aggregation; +: the test compound showed not less than 10% inhibition of platelet aggregation but said percentage inhibition was lower than that of acetylsalicylic acid (100 μg/ml); ++: the test compound showed the platelet aggregation-inhibiting activity at least as strong as that of acetylsalicylic acid (100 μg/ml)", "settings": "final concentration 100 μg/ml, rat PRP, 37° C., Table 3", "text": "Blood was collected from the abdominal aorta of male Sprague-Dawley rats which were anesthetized with ether. Nine volumes of said blood were mixed with one volume of an aqueous 3.8% (w/v) trisodium citrate solution, and the mixture was centrifuged to give platelet-rich plasma (\"PRP\") as the supernatant solution. The bottom layer was further centrifuged to give platelet-poor plasma (\"PPP\") as the supernatant solution. Platelet counts were adjusted to 0.8-1×10^6 /mm^3 for PRP by dilution with PPP. After a mixture of 200 μl of the diluted PRP and 25 μl of a test compound solution (final concentration: 100 μg/ml) was stirred for 2 minutes at 37° C., 25 μl of a collagen solution (Biochim. Biophys. Acta, 186, page 254(1969)) were added thereto. The degree of platelet aggregation was estimated by Born's method (Nature, 194, page 927(1962)) and percentage inhibition of platelet aggregation was calculated therefrom."}, "calmodulin": {"molecular_target": "calmodulin (Homo sapiens, UniProt P0DP23)", "assay": "Anti-calmodulin activity: activation of phosphodiesterase activity by calmodulin (Experiment 5)", "assay_type": "biochemical", "settings": "pH 7.5, 30° C.; Table 4; read-out: ID50 (concentration for 50% inhibition of the activation of phosphodiesterase activity by calmodulin)"}, "[3]": {"test_system": "atrioventricular conduction", "assay": "Atrioventricular conduction in anesthetized guinea pigs, intravenous", "assay_type": "in vivo", "settings": "3 mg/kg intravenously"}, "cerebral ischemia": {"test_system": "cerebral ischemia", "assay": "Protective effect on cerebral ischemia: recovery of electrocorticogram activity after occlusion of common carotid and vertebral artery", "assay_type": "in vivo", "settings": "rats, 0.1 mg/kg/minute intravenously, within one hour after reestablishment of cerebral blood flow"}, "Acute toxicity, oral": {"assay": "Acute toxicity, oral", "settings": "mouse, in vivo, mice, orally", "text": "The compound (I) is further characteristic in that said compound is low in toxicity. For example, the acute toxicity (LD50) of (+)-cis-2-(4-methoxyphenyl)-3-(2-chloro-4-nitrobenzoyloxy)-5-[2-(dimethylamino)ethyl]-2,3-dihydro-1,5-benzothiazepin-4(5H)-one fumarate, when administered to mice orally, is more than 2 g/kg."}}}
{"compound": "COc1ccc([C@@H]2Sc3ccccc3N(CCN(C)C)C(=O)[C@@H]2OC(=O)c2ccc([N+](=O)[O-])cc2Cl)cc1.O=C(O)/C=C/C(=O)O", "note": "[(+)-cis-2-(4-methoxyphenyl)-3-(2-chloro-4-nitrobenzoyloxy)-5-[2-(dimethylamino)ethyl]-2,3-dihydro-1,5-benzothiazepin-4(5H)-one fumarate]", "values": [{"measurement": "Cerebral vasodilating activity (potency ratio to papaverin, class)", "setting": "[1]; anesthetized male dogs, injected into vertebral artery, Table 1", "value": "+++ (the potency ratio is not less than 3)"}, {"measurement": "cerebral vasodilating activity, times stronger than that of papaverine", "setting": "[1]; vertebral artery blood flow, anesthetized dogs, intraarterial", "value": 4.5, "unit": "times"}, {"measurement": "total increase in vertebral blood flow", "setting": "vertebral blood flow", "value": 91, "unit": "mL"}, {"measurement": "coronary vasodilating activity, times stronger than that of papaverine", "setting": "[2]; Langendorff method, isolated hearts of guinea pigs", "value": 10, "unit": "times"}, {"measurement": "Coronary vasodilating activity (class)", "setting": "[2]; isolated guinea pig heart, Langendorff, Table 2", "value": "+++ (the increase is not less than 0.5 ml/minute at a dose of not more than 10 μg/heart)"}, {"measurement": "Platelet aggregation-inhibiting activity (class)", "setting": "platelet aggregation", "value": "++"}, {"measurement": "IC50", "setting": "calmodulin", "value": 2500, "unit": "nM"}, {"measurement": "disturbance of atrioventricular conduction", "setting": "[3]", "value": "did not induce disturbance of atrioventricular conduction"}, {"measurement": "recovery of electrocorticogram (ECoG) activity", "setting": "cerebral ischemia", "value": "about 50%"}, {"measurement": "LD50", "setting": "Acute toxicity, oral", "value": "> 2000", "unit": "mg/kg"}]}
